Measured values: publication PMC11434739, “CAVPENET Peptide Inhibits Prostate Cancer Cells Proliferation and Migration through PP1γ-Dependent Inhibition of AKT Signaling” (Pharmaceutics, 2024)
Where a SMILES comes first, the peptide text is derived from it.

Key:
PC-3 cells = assay: Microscopic evaluation of cellular uptake (live-cell imaging); assay type: cell-based, Human; conditions: TAMRA-labeled bioportide 5 µM, 1 h, 37 °C, 5% CO2, phenol red-free RPMI-1640, live-cell fluorescence imaging (EVOS M5000), 3 independent experiments
Method: (§1) To evaluate the intracellular accumulation of bioportides, PC-3 and LnCaP cells were seeded in a 24-well plate (6.00 × 10^4 and 7.50 × 10^4 cells/well, respectively) and incubated for 24 h at 37 °C under a 5% CO2 atmosphere. After washing cells with phosphate buffered saline (PBS-1×), the growth medium was exchanged for phenol red-free RPMI-1640 medium containing 5µM of TAMRA-labeled CAVPENET or CAVPENET control and incubated for 1 h. After the incubation time, the cells were washed in phenol red-free RPMI-1640 medium and observed by EVOS^TM M5000 Imaging, and photos were obtained. Live-cell imaging was used to avoid fixation artifacts. Untreated cells were included as background reading.
(§2) Figure 1 Translocation of CAVPENET control and CAVPENET bioportides into (A) PC-3 and (B) LnCaP cells. PCa cells (PC-3 and LnCaP) were incubated with TAMRA-labeled bioportides (5 µM) for 1 h at 37 °C and 5% CO2 atmosphere. Representative images from 3 independent experiments are represented. DIC: differential interference contrast. Scale bar: 150 μm.

LnCaP cells = assay: as above; assay type: cell-based, Human; conditions: TAMRA-labeled bioportide 5 µM, 1 h, 37 °C, 5% CO2, phenol red-free RPMI-1640, live-cell fluorescence imaging (EVOS M5000), 3 independent experiments
Method: as §1, §2

[1] = phase II clinical trial; cited from earlier work
Text: Despite the apparent anticancer role of CPT1, by reducing the availability of fatty acids, excess CPT1 seems to support PCa cell proliferation by an ROS-mediated stress phenotype. Moreover, a CPT1 knockout was associated with inhibition of PCa cell invasion, becoming an important therapeutic target for PCa. In this context, different compounds have been produced to target this protein [52]. […] Alternatively, ...

cancer cells = conditions: cited from earlier work; for cancer cell apoptosis: cancer cells
Method: Targeting protein phosphorylation has long been explored as a strategy for cancer treatment. For instance, several kinase inhibitors have been approved by the FDA as anticancer therapies. In the context of phosphatases, targeting the PP1 active site was one of the earliest proposed approaches for anticancer therapeutic development. The potential therapeutic effect of PP1 inhibitors tautomycin and calyculin A was evaluated in cancer cells.

[2] = test system: several types of cells, including different tumor cell lines; conditions: cited from earlier work

Molecule: CC[C@H](C)[C@H](NC(=O)[C@H](Cc1ccccc1)NC(=O)[C@H](CC(=O)O)NC(=O)[C@@H](NC(=O)[C@@H](N)C(C)C)C(C)C)C(=O)N[C@@H](CCCCN)C(=O)N[C@@H](CCC(=O)O)C(=O)N[C@@H](CC(=O)O)C(=O)N[C@@H](CCCNC(=N)N)C(=O)N[C@@H](CCC(N)=O)C(=O)N[C@H](C(=O)N[C@@H](CCCCN)C(=O)N[C@H](C(=O)N[C@@H](Cc1c[nH]c2ccccc12)C(=O)N[C@@H](Cc1ccccc1)C(=O)N[C@@H](CCC(N)=O)C(=O)N[C@@H](CC(N)=O)C(=O)N[C@@H](CCCNC(=N)N)C(=O)N[C@@H](CCCNC(=N)N)C(=O)N[C@@H](CCSC)C(=O)N[C@@H](CCCCN)C(=O)N[C@@H](Cc1c[nH]c2ccccc12)C(=O)N[C@@H](CCCCN)C(=O)N[C@@H](CCCCN)C(N)=O)[C@@H](C)CC)[C@@H](C)CC [CAVPENET control] (H-VVDFIKEDRQIKIWFQNRRMKWKK-NH2)
- cellular internalization (PC-3 cells): demonstrated cellular internalization
- cellular internalization (LnCaP cells): demonstrated cellular internalization

Molecule: CC[C@H](C)[C@H](NC(=O)[C@H](CCCCN)NC(=O)[C@@H](NC(=O)[C@@H](N)C(C)C)C(C)C)C(=O)N[C@@H](CC(=O)O)C(=O)N[C@@H](Cc1ccccc1)C(=O)N[C@@H](CCC(=O)O)C(=O)N[C@@H](CC(=O)O)C(=O)N[C@@H](CCCNC(=N)N)C(=O)N[C@@H](CCC(N)=O)C(=O)N[C@H](C(=O)N[C@@H](CCCCN)C(=O)N[C@H](C(=O)N[C@@H](Cc1c[nH]c2ccccc12)C(=O)N[C@@H](Cc1ccccc1)C(=O)N[C@@H](CCC(N)=O)C(=O)N[C@@H](CC(N)=O)C(=O)N[C@@H](CCCNC(=N)N)C(=O)N[C@@H](CCCNC(=N)N)C(=O)N[C@@H](CCSC)C(=O)N[C@@H](CCCCN)C(=O)N[C@@H](Cc1c[nH]c2ccccc12)C(=O)N[C@@H](CCCCN)C(=O)N[C@@H](CCCCN)C(N)=O)[C@@H](C)CC)[C@@H](C)CC [CAVPENET] (H-VVKIDFEDRQIKIWFQNRRMKWKK-NH2)
- cellular internalization (PC-3 cells): demonstrated cellular internalization
- cellular internalization (LnCaP cells): demonstrated cellular internalization

Molecule: CCOC(=O)[C@@]1(CCCCCCOc2ccc(Cl)cc2)CO1 [Etomoxir]
- hepatotoxicity [1]: hepatotoxicity hampered definitive testing

Molecule: COC[C@@H]([C@H](O)[C@H](O)C(=O)NCC[C@H](C)c1nc(/C=C/C[C@@H]2O[C@]3(C[C@@H](O)[C@@H]2C)O[C@H]([C@H](C[C@H](O)[C@H](C)[C@H](O)[C@H](C)/C=C(C)/C(C)=C/C=C/C(C)=C\C#N)OC)[C@H](OP(=O)(O)O)C3(C)C)co1)N(C)C [calyculin A]
- cancer cell apoptosis (cancer cells): effectiveness in causing cancer cell apoptosis
- toxic effects (cancer cells): significant toxic effects

Molecule: CO[C@H]([C@H](O)CC(=O)[C@@H](C)[C@@H](O)CC[C@@H](C)[C@@H]1O[C@]2(CC[C@@H](C)[C@H](CC[C@H](C)C(C)=O)O2)CC[C@@H]1C)[C@H](OC(=O)C[C@@H](O)C1=C(C)C(=O)OC1=O)C(C)C [tautomycin]
- cancer cell apoptosis (cancer cells): effectiveness in causing cancer cell apoptosis
- toxic effects (cancer cells): significant toxic effects

Molecule: RQIKIWFQNRRMKWKK [Penetratin]
- toxic effects in cells [2]: absence of toxic effects
